Data taken from patent publication US20040048899A1, “Tartrate salts of thiazollidnedione derivative” (priority 2000, published 2004).
Like-named read-outs stand apart in the source and are kept apart here.

Conditions: 1 month, glass bottle, product of Example 4
Experimental: The solid state stability of the drug substance was determined by storing approximately 1.0 g of the material in a glass bottle at i) 40° C./75% Relative Humidity (RH), open exposure, for 1 month and b) at 50° C., closed, for 1 month. The material was assayed by HPLC for final content and degradation products in both cases.

[1] = 40° C./75% Relative Humidity, open exposure

- Solid state stability: HPLC assay [1]: 96 % initial
- Solid state stability: degradation observed [1]: No significant degradation observed
- Solid state stability: HPLC assay (50° C., closed): 98 % initial
- Solid state stability: degradation observed (50° C., closed): No significant degradation observed
Compound: CN(CCOc1ccc(CC2SC(=O)NC2=O)cc1)c1ccccn1.O=C(O)C(O)C(O)C(=O)O (stereo not drawn) [D(−) Tartrate, 5-[4-[2-(N-methyl-N-(2-pyridyl)amino)ethoxy]benzyl]thiazolidine-2,4-dione, D(−) tartrate salt]
